Assay results published in ChEMBL document CHEMBL2086348, “Amide-based derivatives of β-alanine hydroxamic acid as histone deacetylase inhibitors: attenuation of potency through resonance effects” (Bioorg Med Chem Lett, 2012).

Columns and labels:
[1] = Antiproliferative activity against human BE(2)-C cells at 50 uM after 72 hrs by Alamar blue assay; format: functional
Histone deacetylase 1 [2] = target: T1, Histone deacetylase 1 (Homo sapiens, UniProt Q13547); experiment: Inhibition of HDAC1 by fluorometric assay
T1 sequence (Q13547 whole entry): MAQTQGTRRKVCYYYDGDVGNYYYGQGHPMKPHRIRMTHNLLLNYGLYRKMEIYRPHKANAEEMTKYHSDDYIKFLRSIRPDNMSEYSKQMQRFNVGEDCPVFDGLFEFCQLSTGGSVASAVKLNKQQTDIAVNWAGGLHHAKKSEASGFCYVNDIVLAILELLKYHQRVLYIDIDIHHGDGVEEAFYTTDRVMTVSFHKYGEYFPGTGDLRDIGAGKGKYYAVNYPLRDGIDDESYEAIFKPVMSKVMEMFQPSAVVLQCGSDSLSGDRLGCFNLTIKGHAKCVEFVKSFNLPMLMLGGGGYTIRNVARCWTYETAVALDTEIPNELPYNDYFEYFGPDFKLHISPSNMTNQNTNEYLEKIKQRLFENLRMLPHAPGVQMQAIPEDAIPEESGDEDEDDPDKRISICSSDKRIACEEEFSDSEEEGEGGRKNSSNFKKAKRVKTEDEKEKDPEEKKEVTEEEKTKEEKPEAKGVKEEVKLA

[3] = Antiproliferative activity against human BE(2)-C cells after 72 hrs by Alamar blue assay; format: functional, cell-based
[4] = target: Histone deacetylase (Homo sapiens) (UniProt Q13547+O15379+Q9UBN7+Q92769+Q9UQL6+Q8WUI4+Q9BY41+Q96DB2+P56524+Q9UKV0+Q969S8); experiment: Inhibition of HDAC in human HeLa cell extracts at 1 uM; format: protein assay
Histone deacetylase 1 [5] = target: T1, Histone deacetylase 1; experiment: Inhibition of HDAC1 at 250 uM by fluorometric assay

Compound	Activity [1]	IC50 (Histone deacetylase 1 [2])	IC70 [3]	inhibition [4]	inhibition (Histone deacetylase 1 [5])
Cc1ccc(CCC(=O)NCCC(=O)NO)cc1	72.4%	80 µM			
Cc1ccc(OCC(=O)NCCC(=O)NO)cc1	80.4%	84 µM			
O=C(CCNC(=O)Cc1ccc([N+](=O)[O-])cc1)NO	87.9%	39.4 µM			
CN(C)c1ccc(CC(=O)NCCC(=O)NO)cc1	62.8%	38 µM			
CC(/C=C/C(=O)NO)=C\[C@@H](C)C(=O)c1ccc(N(C)C)cc1 [TRICHOSTATIN]			0.05 µM		
O=C(/C=C/c1ccccc1)NCCC(=O)NO	88.6%	67 µM		19%	
CN(C)c1ccc(/C=C/C(=O)NCCC(=O)NO)cc1	57%	> 250 µM			40%
